Test results published in ChEMBL document CHEMBL1208782, “Synthesis and pharmacological validation of a novel series of non-steroidal FXR agonists” (Bioorg Med Chem Lett, 2010).

Assays:
Assay type in all cases: functional, cell-based
[1] = target: T1, Progesterone receptor (Homo sapiens) (UniProt P06401); experiment: Agonist activity at progesterone receptor-LBD expressed in HEK293 cells assessed as Gal4-DBD interaction by cellular mammalian one hybrid assay relative to progesterone
T1 sequence (whole entry): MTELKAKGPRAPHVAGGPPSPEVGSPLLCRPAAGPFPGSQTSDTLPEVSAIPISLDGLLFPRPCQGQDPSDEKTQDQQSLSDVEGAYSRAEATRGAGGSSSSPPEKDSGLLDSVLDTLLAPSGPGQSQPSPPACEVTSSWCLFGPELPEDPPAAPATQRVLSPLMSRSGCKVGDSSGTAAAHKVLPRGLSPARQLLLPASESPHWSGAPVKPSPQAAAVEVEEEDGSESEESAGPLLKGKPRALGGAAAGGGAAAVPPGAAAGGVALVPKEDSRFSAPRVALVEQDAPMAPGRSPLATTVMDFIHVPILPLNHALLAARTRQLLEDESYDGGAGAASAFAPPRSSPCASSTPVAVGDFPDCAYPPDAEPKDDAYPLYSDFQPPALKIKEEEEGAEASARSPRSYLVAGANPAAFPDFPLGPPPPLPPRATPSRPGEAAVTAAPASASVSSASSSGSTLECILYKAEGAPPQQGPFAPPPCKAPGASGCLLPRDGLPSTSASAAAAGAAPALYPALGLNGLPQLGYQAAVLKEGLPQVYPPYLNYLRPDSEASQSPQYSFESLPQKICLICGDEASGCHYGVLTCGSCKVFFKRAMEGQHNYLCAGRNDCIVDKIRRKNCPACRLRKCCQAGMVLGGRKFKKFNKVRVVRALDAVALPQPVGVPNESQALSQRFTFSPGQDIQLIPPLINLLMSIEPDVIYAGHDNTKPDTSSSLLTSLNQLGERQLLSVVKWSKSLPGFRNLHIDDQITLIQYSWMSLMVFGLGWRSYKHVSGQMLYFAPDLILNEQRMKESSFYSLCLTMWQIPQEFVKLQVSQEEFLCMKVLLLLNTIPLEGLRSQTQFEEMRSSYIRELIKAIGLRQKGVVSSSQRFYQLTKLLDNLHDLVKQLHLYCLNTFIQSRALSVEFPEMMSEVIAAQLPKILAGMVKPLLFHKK

Androgen receptor = target: T2, Androgen receptor (Homo sapiens, UniProt P10275); experiment: Agonist activity at androgen receptor-LBD expressed in HEK293 cells assessed as Gal4-DBD interaction by cellular mammalian one hybrid assay
T2 sequence (P10275 whole entry): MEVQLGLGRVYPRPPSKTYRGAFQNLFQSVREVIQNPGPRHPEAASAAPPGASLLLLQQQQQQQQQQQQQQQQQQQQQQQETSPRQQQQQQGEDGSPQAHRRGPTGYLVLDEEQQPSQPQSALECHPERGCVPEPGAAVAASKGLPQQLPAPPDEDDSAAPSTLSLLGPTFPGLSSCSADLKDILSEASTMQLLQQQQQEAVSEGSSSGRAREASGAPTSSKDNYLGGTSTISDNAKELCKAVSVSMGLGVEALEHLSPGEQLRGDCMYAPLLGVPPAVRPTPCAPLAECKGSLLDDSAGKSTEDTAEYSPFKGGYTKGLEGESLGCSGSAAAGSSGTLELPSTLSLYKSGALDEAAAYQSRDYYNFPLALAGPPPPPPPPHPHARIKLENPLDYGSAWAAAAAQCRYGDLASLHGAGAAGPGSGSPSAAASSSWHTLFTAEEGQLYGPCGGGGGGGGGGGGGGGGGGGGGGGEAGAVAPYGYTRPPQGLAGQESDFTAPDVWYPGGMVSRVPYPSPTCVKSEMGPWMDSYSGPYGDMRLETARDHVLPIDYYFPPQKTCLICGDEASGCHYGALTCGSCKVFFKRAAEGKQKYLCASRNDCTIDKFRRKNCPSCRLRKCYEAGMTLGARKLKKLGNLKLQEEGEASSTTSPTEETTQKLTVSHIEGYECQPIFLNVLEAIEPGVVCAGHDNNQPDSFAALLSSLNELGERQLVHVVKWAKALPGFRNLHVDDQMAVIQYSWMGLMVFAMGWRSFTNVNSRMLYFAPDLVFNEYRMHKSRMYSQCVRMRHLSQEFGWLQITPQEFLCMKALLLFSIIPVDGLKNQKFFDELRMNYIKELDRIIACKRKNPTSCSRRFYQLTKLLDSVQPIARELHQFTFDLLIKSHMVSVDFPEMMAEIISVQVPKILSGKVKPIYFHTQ

[2] = target: T3, Peroxisome proliferator-activated receptor gamma (Homo sapiens) (UniProt P37231); experiment: Agonist activity at PPARgamma-LBD expressed in HEK293 cells assessed as Gal4-DBD interaction by cellular mammalian one hybrid assay relative to rosiglitazone
T3 sequence (whole entry): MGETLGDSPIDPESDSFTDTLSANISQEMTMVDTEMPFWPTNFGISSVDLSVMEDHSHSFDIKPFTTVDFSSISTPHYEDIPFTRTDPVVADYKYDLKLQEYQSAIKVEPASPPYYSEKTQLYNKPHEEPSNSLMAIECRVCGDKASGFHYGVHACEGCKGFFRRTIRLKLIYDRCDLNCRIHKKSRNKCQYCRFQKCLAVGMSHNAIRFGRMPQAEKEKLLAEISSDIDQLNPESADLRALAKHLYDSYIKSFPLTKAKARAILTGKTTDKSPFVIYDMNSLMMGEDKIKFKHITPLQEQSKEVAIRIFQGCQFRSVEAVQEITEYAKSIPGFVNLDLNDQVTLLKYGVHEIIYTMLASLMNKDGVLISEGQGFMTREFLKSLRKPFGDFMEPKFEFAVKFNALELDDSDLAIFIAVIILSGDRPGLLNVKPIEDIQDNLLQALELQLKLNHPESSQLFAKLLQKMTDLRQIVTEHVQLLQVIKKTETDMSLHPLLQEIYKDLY

[3] = target: T4, Oxysterols receptor LXR-alpha (Homo sapiens) (UniProt Q13133); experiment: Agonist activity at LXRalpha-LBD expressed in HEK293 cells assessed as Gal4-DBD interaction by cellular mammalian one hybrid assay relative to T0901317
T4 sequence (whole entry): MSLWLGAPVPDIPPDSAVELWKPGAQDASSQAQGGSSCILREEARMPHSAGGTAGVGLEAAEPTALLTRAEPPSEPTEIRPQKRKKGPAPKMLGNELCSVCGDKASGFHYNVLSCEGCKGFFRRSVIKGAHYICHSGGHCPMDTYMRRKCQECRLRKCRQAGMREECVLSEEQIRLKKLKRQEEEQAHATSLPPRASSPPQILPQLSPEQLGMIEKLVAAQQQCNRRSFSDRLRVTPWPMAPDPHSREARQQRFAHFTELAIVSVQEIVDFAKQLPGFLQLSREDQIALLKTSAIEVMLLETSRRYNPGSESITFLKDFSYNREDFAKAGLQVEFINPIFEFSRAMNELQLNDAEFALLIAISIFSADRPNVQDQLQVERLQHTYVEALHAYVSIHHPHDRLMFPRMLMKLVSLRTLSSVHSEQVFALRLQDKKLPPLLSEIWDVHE

Efficacy [1]	EC50 (Androgen receptor)	Efficacy [2]	Efficacy [3]	Compound
0%	> 10 µM	10%	0%	CN(Cc1cccc(C(=O)O)c1)c1ccc(OCc2c(-c3c(Cl)cccc3Cl)noc2C2CC2)nc1C(F)(F)F
0%	> 10 µM	0%	0%	CN(Cc1ccc(C(=O)O)cc1)c1ccc(OCc2c(-c3c(Cl)cccc3Cl)noc2C2CC2)nc1C(F)(F)F
0%	> 10 µM	0%	0%	CC(C)c1onc(-c2c(Cl)cccc2Cl)c1COc1ccc(N(C)Cc2ccc(C(=O)O)cc2)c(C(F)(F)F)n1
